Source: ChEMBL document CHEMBL1201862, “PubChem BioAssay data set” (2004)
The source made the active and inactive calls.

Experiments:
[1] = Shn3 3'UTR reporter inhibitors, dose response, cell-based, Clone20 osteoblasts, firefly luciferase, cherry-picked (AID 624132); assay type: functional;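 further: firefly luciferase luminescence from reporter carrying the Shn3 3'UTR in osteoblasts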
[2] = HepG2 cell cytotoxicity, dose response, cytotoxicity control for Shn3 inhibitor project, CellTiter-Glo, cherry-picked (AID 624134); assay type: functional, cell-based
[3] = control 3'UTR Renilla luciferase suppression, dose response, counter-screen for Shn3 inhibitor project, cell-based, Clone20-Shn3RL, cherry-picked (AID 624133); assay type: functional
[4] = inhibitors of HIV Env-driven cell fusion, dose response, cherry-pick (AID 652057); assay type: functional, cell-based
[5] = ZM109 Env clade C HIV-1 fusion inhibitors, dose response, HeLa effector, CEM target cells, luciferase, cherry-pick (AID 652058); assay type: functional, cell-based
[6] = inhibitors of clade B AD8 Env fusion, dose response, cell-based, cherry-pick (AID 652062); assay type: functional;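 further: luciferase signal from cell-cell fusion driven by HIV-1 clade B AD8 Env; potency is for inhibitors of fusion seen as a drop in luminescence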
[7] = molecular target: T1, Corticotropin-releasing factor receptor 2/Corticotropin-releasing factor-binding protein (Homo sapiens, UniProt P24387+Q13324); test: Dose Response confirmation of uHTS hits for small molecule antagonists of the CRF-binding protein and CRF-R2 receptor complex.; assay type: functional; conditions: read-out: IC50_Mean
T1 sequence (Q13324 whole entry): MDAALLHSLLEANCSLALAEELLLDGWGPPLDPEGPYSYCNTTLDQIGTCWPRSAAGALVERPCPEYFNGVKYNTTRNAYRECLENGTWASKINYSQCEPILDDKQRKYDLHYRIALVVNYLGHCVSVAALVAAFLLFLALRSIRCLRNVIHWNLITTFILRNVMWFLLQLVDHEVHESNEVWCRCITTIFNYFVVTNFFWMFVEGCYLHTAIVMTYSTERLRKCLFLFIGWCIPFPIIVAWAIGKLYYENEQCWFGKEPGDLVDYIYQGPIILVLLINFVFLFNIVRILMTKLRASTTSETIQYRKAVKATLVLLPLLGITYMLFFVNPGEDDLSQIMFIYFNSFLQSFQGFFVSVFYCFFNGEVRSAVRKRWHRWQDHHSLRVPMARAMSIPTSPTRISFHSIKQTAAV
T1 sequence (P24387 whole entry): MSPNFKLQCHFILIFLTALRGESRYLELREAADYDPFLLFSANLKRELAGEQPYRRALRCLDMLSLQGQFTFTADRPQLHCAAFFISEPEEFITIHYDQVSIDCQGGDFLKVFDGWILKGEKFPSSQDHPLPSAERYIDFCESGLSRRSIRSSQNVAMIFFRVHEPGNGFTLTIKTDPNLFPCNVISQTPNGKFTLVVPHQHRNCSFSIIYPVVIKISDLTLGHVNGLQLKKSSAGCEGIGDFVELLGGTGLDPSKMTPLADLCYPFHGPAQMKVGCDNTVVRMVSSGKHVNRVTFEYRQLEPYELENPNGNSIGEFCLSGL

[8] = molecular target: T1, Corticotropin-releasing factor receptor 2/Corticotropin-releasing factor-binding protein; test: activators of CRF receptor 2 with binding protein – uHTS hits, confirmation (AID 602473); assay type: functional; conditions: read-out: EC50_Mean
[9] = CRF-BP/CRF-R2 complex antagonists, dose response, cell-based, uHTS hits, 384-well (AID 651639); assay type: functional, Homo sapiens; conditions: read-out: IC50_Mean
[10] = molecular target: Estrogen receptor beta (Homo sapiens, UniProt Q92731);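 further: recombinant ER-beta bound to coactivator SRC1 peptide in presence of estradiol agonist; inhibitors block coactivator peptide binding and lower the FRET signal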
[11] = molecular target: T2, Heat shock factor protein 1 (Mus musculus, UniProt P38532); test: HSF1 potentiators in luciferase reporter cells, confirmation, cell-based, NIH3T3, luminescence, dose retest (AID 435004); assay type: functional;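 further: stress induced by proteasome inhibitor MG132 added 30 min after compound; luciferase reporter driven by HSF1 response element in NIH3T3 cells; actives raise luminescence as potentiators of the MG132 stress response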
T2 sequence (P38532 whole entry): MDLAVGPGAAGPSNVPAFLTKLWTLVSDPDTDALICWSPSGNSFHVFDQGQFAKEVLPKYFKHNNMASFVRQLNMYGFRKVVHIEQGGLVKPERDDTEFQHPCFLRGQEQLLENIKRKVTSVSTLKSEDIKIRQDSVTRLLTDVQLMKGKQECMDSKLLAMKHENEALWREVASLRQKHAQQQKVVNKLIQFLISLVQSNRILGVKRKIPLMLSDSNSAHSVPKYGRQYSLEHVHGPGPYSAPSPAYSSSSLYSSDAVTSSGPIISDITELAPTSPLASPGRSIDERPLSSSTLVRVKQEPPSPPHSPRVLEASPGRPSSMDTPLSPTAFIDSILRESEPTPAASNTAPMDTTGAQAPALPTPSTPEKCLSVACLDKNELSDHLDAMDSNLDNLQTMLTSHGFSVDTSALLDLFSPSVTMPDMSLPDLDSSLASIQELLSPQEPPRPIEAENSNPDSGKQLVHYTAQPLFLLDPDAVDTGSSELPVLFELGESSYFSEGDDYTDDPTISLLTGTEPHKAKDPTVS

[12] = molecular target: Induced myeloid leukemia cell differentiation protein Mcl-1 (Homo sapiens, UniProt Q07820); assay type: functional
[13] = test system: P388/ADR; test: cells; assay type: functional; conditions: Mus musculus
[14] = test system: SN12K1; test: cells; assay type: functional; conditions: Homo sapiens
[15] = test system: P388; test: cells; assay type: functional; conditions: Mus musculus
[16] = molecular target: Paired box protein Pax-8 (Homo sapiens, UniProt Q06710); test: inhibitors of PAX8-driven TPO luciferase reporter, dose response, RMG-I cells, cherry-pick (AID 687027); assay type: functional, cell-based;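 further: luciferase reporter driven by Pax8 target thyroperoxidase promoter measured by SteadyGlo luminescence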
[17] = Luminescence Cell-Based Dose Retest to Confirm Inhibitors of Cancer Stem Cells. [Related pubchem assays (depositor defined):AID2717, AID2721]; assay type: functional; conditions: Homo sapiens
[18] = molecular target: Genome polyprotein (dengue virus type 2, UniProt P29990); test: Dengue-2 NS5 methyltransferase inhibitors, primary screen, biochemical, confirmation dose response (AID 588689); assay type: functional
[19] = intracellular Trypanosoma cruzi inhibitors in host cells – cell-based, plate reader, cherry-pick samples, set 3, dose response (AID 651818); assay type: functional;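 further: compounds incubated with infected cells for about four days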
[20] = molecular target: T3, Protein skinhead-1 (Caenorhabditis elegans, UniProt P34707); assay type: functional
T3 sequence (P34707 whole entry): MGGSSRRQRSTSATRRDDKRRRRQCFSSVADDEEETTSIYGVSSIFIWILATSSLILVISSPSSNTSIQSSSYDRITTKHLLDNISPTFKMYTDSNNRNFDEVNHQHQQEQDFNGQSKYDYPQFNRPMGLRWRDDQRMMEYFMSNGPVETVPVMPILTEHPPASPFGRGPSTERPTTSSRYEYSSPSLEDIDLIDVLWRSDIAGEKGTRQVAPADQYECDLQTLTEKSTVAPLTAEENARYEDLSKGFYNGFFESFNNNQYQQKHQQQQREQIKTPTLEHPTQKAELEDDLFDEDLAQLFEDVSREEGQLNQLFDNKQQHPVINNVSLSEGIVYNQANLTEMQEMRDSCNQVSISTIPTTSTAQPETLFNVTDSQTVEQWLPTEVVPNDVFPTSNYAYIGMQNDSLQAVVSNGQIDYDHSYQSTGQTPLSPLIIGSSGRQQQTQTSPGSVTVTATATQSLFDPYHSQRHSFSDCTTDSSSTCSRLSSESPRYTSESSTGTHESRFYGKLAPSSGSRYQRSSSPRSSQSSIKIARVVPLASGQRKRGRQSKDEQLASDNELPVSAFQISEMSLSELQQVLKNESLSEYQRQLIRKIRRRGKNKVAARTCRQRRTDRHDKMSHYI

[21] = P. falciparum 3D7-ScDHODH growth inhibitors, dose response, SYBR Green, dry powder samples (AID 1159570); assay type: functional, cell-based;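 further: parasite growth measured after 72 hours of compound exposure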
[22] = P. falciparum Dd2 growth inhibitors, dose response, SYBR Green, cherry-picked samples (AID 1159567); assay type: functional, cell-based
[23] = P. falciparum Dd2 growth inhibitors, dose response, SYBR Green, dry powder samples (AID 1159566); assay type: functional, cell-based;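 further: potency for growth inhibition with lower SYBR green DNA signal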
[24] = P. falciparum ATP4 D1247Y mutant growth inhibitors, dose response, NITD609-resistant line, SYBR Green, dry powder (AID 1159571); assay type: functional, cell-based;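 further: parasites synchronized at ring stage by sorbitol before testing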

Chain of Estrogen receptor beta (Q92731 whole entry): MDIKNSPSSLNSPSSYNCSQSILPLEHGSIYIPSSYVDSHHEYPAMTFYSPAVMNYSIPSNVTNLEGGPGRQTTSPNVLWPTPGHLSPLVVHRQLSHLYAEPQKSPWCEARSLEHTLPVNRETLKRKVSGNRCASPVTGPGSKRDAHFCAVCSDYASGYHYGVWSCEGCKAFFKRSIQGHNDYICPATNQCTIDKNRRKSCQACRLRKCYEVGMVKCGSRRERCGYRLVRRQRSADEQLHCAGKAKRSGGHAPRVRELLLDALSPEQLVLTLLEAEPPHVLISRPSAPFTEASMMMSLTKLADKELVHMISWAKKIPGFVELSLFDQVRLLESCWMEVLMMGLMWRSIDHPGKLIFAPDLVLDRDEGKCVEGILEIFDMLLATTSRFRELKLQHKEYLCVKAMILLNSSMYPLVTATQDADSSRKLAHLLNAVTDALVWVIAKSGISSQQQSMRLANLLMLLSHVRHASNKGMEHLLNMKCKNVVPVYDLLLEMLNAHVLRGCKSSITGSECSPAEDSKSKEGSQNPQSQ
Chain of Genome polyprotein (P29990 2492-3391 limits assumed): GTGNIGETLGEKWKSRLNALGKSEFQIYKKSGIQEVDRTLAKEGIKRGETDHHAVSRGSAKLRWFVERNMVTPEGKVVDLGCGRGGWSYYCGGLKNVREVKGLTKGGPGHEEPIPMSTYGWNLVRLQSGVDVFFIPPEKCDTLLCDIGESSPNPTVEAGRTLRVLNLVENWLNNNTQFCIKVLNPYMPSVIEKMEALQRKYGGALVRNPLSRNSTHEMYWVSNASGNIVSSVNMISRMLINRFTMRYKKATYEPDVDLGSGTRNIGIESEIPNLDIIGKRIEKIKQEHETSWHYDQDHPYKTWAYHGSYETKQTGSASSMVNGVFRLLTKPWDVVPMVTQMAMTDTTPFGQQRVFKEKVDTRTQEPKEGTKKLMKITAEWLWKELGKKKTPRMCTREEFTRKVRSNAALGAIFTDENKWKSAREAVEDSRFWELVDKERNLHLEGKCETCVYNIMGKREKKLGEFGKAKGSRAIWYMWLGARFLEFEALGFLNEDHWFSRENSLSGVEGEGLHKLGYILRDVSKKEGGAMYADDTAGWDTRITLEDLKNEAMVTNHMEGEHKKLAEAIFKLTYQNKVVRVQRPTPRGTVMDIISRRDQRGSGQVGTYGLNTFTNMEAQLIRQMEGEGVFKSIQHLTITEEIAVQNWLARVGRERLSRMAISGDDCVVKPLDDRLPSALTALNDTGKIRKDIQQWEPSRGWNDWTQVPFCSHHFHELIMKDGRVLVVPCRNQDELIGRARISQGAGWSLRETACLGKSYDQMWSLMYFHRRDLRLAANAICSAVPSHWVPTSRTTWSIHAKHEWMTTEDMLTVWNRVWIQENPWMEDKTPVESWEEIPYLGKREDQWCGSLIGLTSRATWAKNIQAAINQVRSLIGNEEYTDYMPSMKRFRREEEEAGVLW
Chain of Paired box protein Pax-8 (Q06710 whole entry): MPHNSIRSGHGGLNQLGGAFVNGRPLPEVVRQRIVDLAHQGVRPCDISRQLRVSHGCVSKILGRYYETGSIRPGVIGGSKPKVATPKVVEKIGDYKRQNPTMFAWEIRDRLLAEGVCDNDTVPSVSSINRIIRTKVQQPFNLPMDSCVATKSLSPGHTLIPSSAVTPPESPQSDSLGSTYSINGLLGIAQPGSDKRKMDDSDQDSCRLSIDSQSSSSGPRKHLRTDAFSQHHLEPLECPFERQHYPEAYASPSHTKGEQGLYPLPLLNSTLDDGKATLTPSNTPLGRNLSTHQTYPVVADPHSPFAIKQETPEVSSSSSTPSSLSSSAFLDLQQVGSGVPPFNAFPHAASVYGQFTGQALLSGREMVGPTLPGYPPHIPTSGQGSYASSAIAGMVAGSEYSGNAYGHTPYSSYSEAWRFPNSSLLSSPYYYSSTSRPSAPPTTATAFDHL
Chain of Induced myeloid leukemia cell differentiation protein Mcl-1 (Q07820 whole entry): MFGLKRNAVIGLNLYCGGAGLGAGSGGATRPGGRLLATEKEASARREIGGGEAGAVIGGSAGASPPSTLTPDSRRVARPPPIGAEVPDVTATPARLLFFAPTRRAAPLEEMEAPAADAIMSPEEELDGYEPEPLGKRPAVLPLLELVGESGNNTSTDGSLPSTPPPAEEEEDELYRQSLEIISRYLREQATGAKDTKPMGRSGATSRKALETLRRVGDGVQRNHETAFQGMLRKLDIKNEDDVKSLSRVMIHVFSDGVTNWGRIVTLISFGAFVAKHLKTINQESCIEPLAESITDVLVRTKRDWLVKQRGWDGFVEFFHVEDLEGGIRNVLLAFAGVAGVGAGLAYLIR

CSc1ccc(CN(C)C(=O)c2cccc(S(=O)(=O)N3CCN(Cc4ccccc4)CC3)c2)cc1
AC50 [1]: 2.89 µM (active)
AC50 [2]: 64.6 µM (active)
AC50 [3]: 14.3 µM (active)
AC50 [4]: 10.3 µM (active)
AC50 [5]: 10.3 µM (active)
AC50 [6]: 8.39 µM (active)

O=C(Oc1c(Br)cc([N+](=O)[O-])cc1Br)c1cccnc1
IC50 [7]: 9.69 µM (active)
EC50 [8]: > 53 µM (inactive)
IC50 [9]: > 20 µM (inactive)

Cn1c(COc2ccccc2)nnc1SCC(=O)c1cccc([N+](=O)[O-])c1
IC50 [7]: 23.4 µM (active)
EC50 [8]: > 53 µM (inactive)
IC50 [9]: 7.77 µM (active)

Cc1ccccc1Cn1ccc(NC(=O)c2cc3ncc(Br)cn3n2)n1
IC50 [7]: < 0.368 µM (active)
EC50 [8]: > 53 µM (inactive)
IC50 [9]: 2.65 µM (active)

O=C(CNC(=O)c1ccco1)OCc1ccc(Cl)cc1
IC50 [10]: > 50 µM (not active)

CCn1cc(SCC(=O)NCc2ccc3c(c2)OCO3)c2ccccc21
IC50 [10]: > 50 µM (not active)

NS(=O)(=O)c1ccc(CCNC2CC(=O)N(CCc3ccccc3)C2=O)cc1 (stereo not given)
IC50 [10]: > 50 µM (not active)

Cc1ccc2cccc(Oc3ncnc4scc(-c5ccccc5)c34)c2n1
IC50 [7]: 7.86 µM (active)
EC50 [8]: > 53 µM (inactive)
IC50 [9]: 9.74 µM (active)

COc1ccc(C(=O)COC(=O)c2cccnc2SC)cc1
EC50 [11]: > 260 µM (inactive)
IC50 [7]: 1.85 µM (active)
EC50 [8]: > 53 µM (inactive)
IC50 [9]: 3.77 µM (active)

O=C(CN1C(=O)/C(=C2\SC(=S)N(C3CCS(=O)(=O)C3)C2=O)c2ccccc21)Nc1ccccc1 (stereo not given)
IC50 [12]: 5.8 µM (active)

CC(C)CCCCCCCCCCCCC(=O)NCC(=O)NC1C(C)OC(Nc2[nH]cnc3ncnc2-3)C(O)C1O (stereo not given)
GI50 [13]: 0.01 µM (active)
GI50 [14]: 0.01 µM (active)
GI50 [15]: 0.01 µM (active)
AC50 [16]: < 0.26 µM (active)

N#Cc1ccc(CN(Nc2ccccc2)c2ccccc2)cc1
IC50 [7]: 14.3 µM (active)
EC50 [8]: > 53 µM (inactive)
IC50 [9]: 10 µM (active)

C[N+](C)(C)CCOC(=O)/C=C/c1c[nH]cn1
GI50 [13]: > 316 µM (inactive)
GI50 [14]: > 500 µM (inactive)
GI50 [15]: > 500 µM (inactive)

CN(C)CCOc1cc2c(c3ccccc13)-c1ccccc1C2O (stereo not given)
GI50 [13]: 5.77 µM (inactive)
GI50 [14]: 6.62 µM (inactive)
GI50 [15]: 5.02 µM (inactive)

CC1=CC(=O)C(C(C)C)=C/C1=C(\c1cc(C(C)C)c(OP(=O)(O)O)cc1C)c1ccccc1C(=O)O
AC50 [17]: 2.27 µM (active)
IC50 [18]: 33.4 µM (active)

O=S(=O)(O)c1cc(/N=N/c2cc(S(=O)(=O)O)c3ccccc3c2O)ccc1/C=C/c1ccc(/N=N/c2cc(S(=O)(=O)O)c3ccccc3c2O)cc1S(=O)(=O)O
GI50 [13]: 36.6 µM (inactive)
GI50 [14]: > 78.9 µM (inactive)
GI50 [15]: > 100 µM (inactive)

C[C@H](CO)N1C[C@H](C)[C@H](CN(C)Cc2ccc(C(=O)Nc3ccccc3N)cc2)Oc2ccc(NC(=O)C3CC3)cc2CC1=O
AC50 [19]: 2.66 µM (active)

Cc1ccc(S(=O)(=O)N(C)C[C@H]2Oc3c(NC(=O)c4nc5ccccc5s4)cccc3C(=O)N([C@H](C)CO)C[C@@H]2C)cc1
AC50 [19]: 0.839 µM (active)

COc1ccc(NC(=O)Nc2cccc3c2O[C@@H](CN(C)Cc2ccc(C(=O)O)cc2)[C@@H](C)CN([C@@H](C)CO)C3=O)cc1
AC50 [19]: 20 µM (inactive)

C[C@@H]1CN([C@H](C)CO)C(=O)Cc2cc(NC(=O)Nc3ccc(C(F)(F)F)cc3)ccc2O[C@@H]1CN(C)S(=O)(=O)c1ccccc1
AC50 [19]: 4.23 µM (active)

C[C@@H]1CCCCO[C@@H](CN(C)Cc2ccc(Cl)c(Cl)c2)[C@@H](C)CN([C@H](C)CO)C(=O)c2cc(NS(=O)(=O)c3ccccc3)ccc2O1
AC50 [19]: 5.37 µM (active)

CSC1SCC2C(=O)N(C)C(C(C)C)C(=O)OCC(NC(=O)c3cnc4ccccc4n3)C(=O)NC(C)C(=O)N(C)C1C(=O)N(C)C(C(C)C)C(=O)OCC(NC(=O)c1cnc3ccccc3n1)C(=O)NC(C)C(=O)N2C (stereo not given)
AC50 [1]: < 0.26 µM (active)
GI50 [13]: 9.55e-05 µM (active)
AC50 [3]: < 0.26 µM (active)
GI50 [14]: 0.0075 µM (active)
GI50 [15]: 0.0075 µM (active)
IC50 [20]: 81.5 µM (inactive)

COc1ccccc1S(=O)(=O)N(C)C[C@@H]1OCc2ccccc2-c2c(n(C)c3ccccc23)C(=O)N([C@@H](C)CO)C[C@@H]1C
AC50 [21]: 0.507 µM (active)
AC50 [22]: 2.19 µM (active)
AC50 [23]: 0.445 µM (active)
AC50 [24]: 0.44 µM (active)

O=CC(NC(=O)N(CCCl)N=O)C(O)C(O)C(O)CO (stereo not given)
GI50 [13]: 79.6 µM (inactive)
GI50 [14]: 760 µM (inactive)
GI50 [15]: 97.7 µM (inactive)

CN(C)C(=O)Oc1c(Br)cc(Br)cc1C(=O)OCc1ccccc1
GI50 [13]: 16 µM (inactive)
GI50 [14]: 28.4 µM (inactive)
GI50 [15]: 17.9 µM (inactive)
